Source: patent publication US20230131899A1, “INHIBITORS OF MICROBIALLY INDUCED AMYLOID” (Axial Therapeutics, Inc., priority 2020, published 2023)
Like-named read-outs stand apart in the source and are kept apart here.

Molecular target: T1, E. coli CsgA (Escherichia coli, UniProt P28307)
T1 construct: made in house; host or cells: E. coli NEB 3016 slyD::kan, pET11d
Experiment: In vitro ThioflavinT assay of CsgA aggregation (CsgA ThT Assay)
Type: biochemical
Summary of the method: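 Purified C-terminal His-tagged CsgA, monomerised by desalting and 30-kDa filtration, at 2-20 μM with 20-40 μM ThT in 50 mM potassium phosphate pH 7.3, 1% DMSO, compounds 3.125-200 uM; room temperature, fluorescence (ex 438/em 495 nm) read every 15 min. Background-subtracted signal expressed as percent inhibition versus vehicle at 6-6.5 or 8-9 h, or as percent control AUC.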

[1] = read-out: CsgA ThT Assay (2 μM CsgA) % Control Bmax 25 μM, activity range, class symbol, CsgA 2 μM, white plates, compound 25 μM
[2] = read-out: CsgA ThT Assay (2 μM CsgA) % Control Bmax 25 μM, mean Bmax as percentage of DMSO control, CsgA 2 μM, white plates, compound 25 μM
[3] = read-out: CsgA ThT Assay (2 μM CsgA) % Control Bmax 100 μM, activity range, class symbol, CsgA 2 μM, white plates, compound 100 μM
[4] = read-out: CsgA ThT Assay (2 μM CsgA) % Control Bmax 100 μM, mean Bmax as percentage of DMSO control, CsgA 2 μM, white plates, compound 100 μM
[5] = read-out: CsgA ThT Assay (10 μM CsgA) % Control AUC at 1005 minutes, 25 μM (activity range), CsgA 10 μM, black plates, compound 25 μM, 1005 minutes, class symbol
[6] = read-out: CsgA ThT Assay (10 μM CsgA) % Control AUC at 1005 minutes, 25 μM, mean AUC as % of DMSO control, CsgA 10 μM, black plates, compound 25 μM, 1005 minutes
[7] = read-out: CsgA ThT Assay (10 μM CsgA) % Control AUC at 1005 minutes, 100 μM (activity range), CsgA 10 μM, black plates, compound 100 μM, 1005 minutes, class symbol
[8] = read-out: CsgA ThT Assay (10 μM CsgA) % Control AUC at 1005 minutes, 100 μM, mean AUC as % of DMSO control, CsgA 10 μM, black plates, compound 100 μM, 1005 minutes

T1 sequence (P28307 23-151): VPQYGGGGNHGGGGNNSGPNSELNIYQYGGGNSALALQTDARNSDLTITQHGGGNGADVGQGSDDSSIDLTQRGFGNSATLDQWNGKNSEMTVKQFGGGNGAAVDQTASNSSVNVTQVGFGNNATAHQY

| Compound | remaining activity at 25 µM [1] [%] | remaining activity at 25 µM [2] [%] | remaining activity at 100 µM [3] [%] | remaining activity at 100 µM [4] [%] | also measured |
| --- | --- | --- | --- | --- | --- |
| CC(C)(C)c1ccc(Cc2c(-c3cccc(C(F)(F)F)c3)c3n(c(=O)c2Cl)C(C(=O)O)CN3Cc2ccccc2)cc1 (stereo not shown) [Compound 216, 1-benzyl-7-(4-(tert-butyl)benzyl)-6-chloro-5-oxo-8-(3-(trifluoromethyl)phenyl)-1,2,3,5-tetrahydroimidazo[1,2-a]pyridine-3-carboxylic acid] | > 60 | 95 | 31 to 60 | 55 | – |
| O=C(O)C1CN(CCCCCCCN2CC(C(=O)O)n3c2c(-c2cccc(C(F)(F)F)c2)c(Cc2cccc4ccccc24)c(Cl)c3=O)c2c(-c3cccc(C(F)(F)F)c3)c(Cc3cccc4ccccc34)c(Cl)c(=O)n21 (stereo not shown) [Compound 188, 1,1′-(heptane-1,7-diyl)bis(6-chloro-7-(naphthalen-1-ylmethyl)-5-oxo-8-(3-(trifluoromethyl)phenyl)-1,2,3,5-tetrahydroimidazo[1,2-a]pyridine-3-carboxylic acid)] | 31 to 60 | 33 | 11 to 31 | 14 | – |
| O=C(O)C1CN(Cc2cccc(O)c2)c2c(-c3cccc(C(F)(F)F)c3)c(Cc3cccc4ccccc34)c(Cl)c(=O)n21 (stereo not shown) [Compound 196, 6-chloro-1-(3-hydroxybenzyl)-7-(naphthalen-1-ylmethyl)-5-oxo-8-(3-(trifluoromethyl)phenyl)-1,2,3,5-tetrahydroimidazo[1,2-a]pyridine-3-carboxylic acid] | > 60 | 67 | – | – | – |
| O=C(O)C1CN(C[C@H](O)[C@@H](O)[C@H](O)[C@H](O)CO)S(=O)(=O)c2c(-c3cccc(C(F)(F)F)c3)c(Cc3cccc4ccccc34)cc(=O)n21 (mixture of isomers) [Compound 066, 8-(naphthalen-1-ylmethyl)-6-oxo-2-((2S,3R,4R,5R)-2,3,4,5,6-pentahydroxyhexyl)-9-(3-(trifluoromethyl)phenyl)-3,4-dihydro-2H,6H-pyrido[1,2-e][1,2,5]thiadiazine-4-carboxylic acid 1,1-dioxide] | – | – | – | – | remaining activity at 25 µM [5]: > 60%; remaining activity at 25 µM [6]: 88%; remaining activity at 100 µM [7]: 11 to 31%; remaining activity at 100 µM [8]: 29% |
| CCc1c(Cc2cccc3ccccc23)c(-c2cccc(C(F)(F)F)c2)c2n(c1=O)C(C(=O)O)CN2Cc1ccccc1 (stereo not shown) [Compound 140, 1-benzyl-6-ethyl-7-(naphthalen-1-ylmethyl)-5-oxo-8-(3-(trifluoromethyl)phenyl)-1,2,3,5-tetrahydroimidazo[1,2-a]pyridine-3-carboxylic acid] | 31 to 60 | 35 | 11 to 31 | 19 | – |
| O=C(O)[C@H]1CN(Cc2ccccc2)c2c(-c3cccc(C(F)(F)F)c3)c(Cc3cccc4ccccc34)c(Cl)c(=O)n21 (single isomer, unassigned) [Compound 004b] | 31 to 60 | 54 | 31 to 60 | 40 | – |
| O=C(O)C1CN(Cc2ccc(-c3ccccc3)cc2)c2c(-c3cccc(C(F)(F)F)c3)c(Cc3cccc4ccccc34)c(Cl)c(=O)n21 (stereo not shown) [Compound 202, 1-([1,1′-biphenyl]-4-ylmethyl)-6-chloro-7-(naphthalen-1-ylmethyl)-5-oxo-8-(3-(trifluoromethyl)phenyl)-1,2,3,5-tetrahydroimidazo[1,2-a]pyridine-3-carboxylic acid] | 31 to 60 | 51 | – | – | – |
| O=C(O)C1CN(CCCCCCN2CC(C(=O)O)n3c2c(-c2cccc(C(F)(F)F)c2)c(Cc2cccc4ccccc24)c(Cl)c3=O)c2c(-c3cccc(C(F)(F)F)c3)c(Cc3cccc4ccccc34)c(Cl)c(=O)n21 (stereo not shown) [Compound 193, 1,1′-(hexane-1,6-diyl)bis(6-chloro-7-(naphthalen-1-ylmethyl)-5-oxo-8-(3-(trifluoromethyl)phenyl)-1,2,3,5-tetrahydroimidazo[1,2-a]pyridine-3-carboxylic acid)] | 31 to 60 | 53 | < 10 | 10 | – |
| Nc1c(Cc2cccc3ccccc23)c(-c2cccc(C(F)(F)F)c2)c2n(c1=O)C(C(=O)O)CS2 (single isomer, unassigned) [Compound 020b, 6-amino-7-(naphthalen-1-ylmethyl)-5-oxo-8-(3-(trifluoromethyl)phenyl)-2,3-dihydro-5H-thiazolo[3,2-a]pyridine-3-carboxylic acid] | – | – | – | – | CsgA ThT Assay (10 μM CsgA) % Control AUC at 1005 minutes, 25 μM (activity range) (CsgA 10 μM, black plates, compound 25 μM, 1005 minutes, class symbol): (+++) (% control AUC of 11 to 31%); CsgA ThT Assay (10 μM CsgA) % Control AUC at 1005 minutes, 100 μM (activity range) (CsgA 10 μM, black plates, compound 100 μM, 1005 minutes, class symbol): (+++) (% control AUC of 11 to 31%); CsgA ThT Assay (10 μM CsgA) % Control AUC at 1005 minutes, 25 μM (mean AUC as % of DMSO control, CsgA 10 μM, black plates, compound 25 μM, 1005 minutes): 26%; CsgA ThT Assay (10 μM CsgA) % Control AUC at 1005 minutes, 100 μM (mean AUC as % of DMSO control, CsgA 10 μM, black plates, compound 100 μM, 1005 minutes): 16% |
| CC(C)N1CC(C(=O)O)n2c(c(-c3cccc(C(F)(F)F)c3)c(Cc3cccc4ccccc34)c(C(N)=O)c2=O)S1(=O)=O (stereo not shown) [Compound 175, 7-carbamoyl-2-isopropyl-8-(naphthalen-1-ylmethyl)-6-oxo-9-(3-(trifluoromethyl)phenyl)-3,4-dihydro-2H,6H-pyrido[1,2-e][1,2,5]thiadiazine-4-carboxylic acid 1,1-dioxide] | 31 to 60 | 33 | 11 to 31 | 24 | – |
| CCc1c(Cc2cccc3ccccc23)c(-c2cccc(C(F)(F)F)c2)c2n(c1=O)C(C(=O)O)CN2Cc1ccc(OC)cc1 (stereo not shown) [Compound 161, 6-ethyl-1-(4-methoxybenzyl)-7-(naphthalen-1-ylmethyl)-5-oxo-8-(3-(trifluoromethyl)phenyl)-1,2,3,5-tetrahydroimidazo[1,2-a]pyridine-3-carboxylic acid] | 31 to 60 | 54 | 11 to 31 | 29 | – |
| O=C(O)C1CN(CCCCCO)c2c(-c3cccc(C(F)(F)F)c3)c(Cc3cccc4ccccc34)c(Cl)c(=O)n21 (stereo not shown) [Compound 199, 6-chloro-1-(5-hydroxypentyl)-7-(naphthalen-1-ylmethyl)-5-oxo-8-(3-(trifluoromethyl)phenyl)-1,2,3,5-tetrahydroimidazo[1,2-a]pyridine-3-carboxylic acid] | > 60 | 83 | > 60 | 99 | – |
| O=C(O)C1CSc2c(-c3cccc(C(F)(F)F)c3)c(Cc3cccc4ccccc34)cc(=S)n21 (stereo not shown) [Compound 054, 7-(naphthalen-1-ylmethyl)-5-thioxo-8-(3-(trifluoromethyl)phenyl)-2,3-dihydro-5H-thiazolo[3,2-a]pyridine-3-carboxylic acid] | – | – | – | – | remaining activity at 25 µM [5]: 31 to 60%; remaining activity at 25 µM [6]: 44%; remaining activity at 100 µM [7]: 31 to 60%; remaining activity at 100 µM [8]: 50% |
| O=C(O)C1CN(Cc2ccccc2)c2c(-c3cccc(Br)c3)c(Cc3cccc4ccccc34)c(Cl)c(=O)n21 (stereo not shown) [Compound 198, 1-benzyl-8-(3-bromophenyl)-6-chloro-7-(naphthalen-1-ylmethyl)-5-oxo-1,2,3,5-tetrahydroimidazo[1,2-a]pyridine-3-carboxylic acid] | > 60 | 61 | 31 to 60 | 39 | – |
